The subject of series [1] is human patients, abdominal surgery. Conditions: 6 mg and 12 mg oral doses, started at least two hours prior to abdominal surgery; cited from earlier work.
Series [2] concerns the target mu opioid receptor (Homo sapiens, UniProt P35372). To be noted: Alvimopan compared with methylnaltrexone; as characterized by Adolor Corporation; cited from earlier work.
For series [3] the following is noted: white crystalline powder as provided; cited from earlier work.
Series [4] relates to human segmental colectomy patients. Put plainly: Phase 2 randomized, double-blind, placebo-controlled study of IV MNTX after segmental colectomy. Format: in vivo. The text has this: The following non-limiting examples relate to a phase 2 human study using MNTX to reduce the duration of gastrointestinal dysfunction following segmental colectomy. The primary objective of this study was to assess the activity of parenterally administered MNTX every six hours compared with placebo in shortening the duration of or preventing post-operative ileus in patients who have undergone segmental colectomies. Evidence of activity of MNTX was based on at least one or more of the following: the time to tolerance of liquids, time to first bowel movement, time to tolerance of solid foods, time to the combination of first solid meal and bowel movement, time to first micturition post foley catheter removal, and time to hospital discharge. The use of daily anti-emetic and opioid medication was also assessed.
A total of 65 patients at eight surgical centers participated in the phase 2 randomized, double-blind, placebo-controlled study. Subjects underwent segmental colectomies primarily due to cancer or diverticular disease. Shortly after surgery (90 minutes post surgery), study medication (0.3 mg/kg MNTX or placebo) was administered intravenously at six-hour intervals for a maximum of seven days.
The study was a double-blind, randomized parallel group study designed to evaluate the safety and activity of IV (intravenous) MNTX in the treatment of patients who are undergoing segmental colectomies via laparotomy and the duration of their post-operative ileus. Patients were randomized to either placebo (saline) or a fixed dose of IV MNTX of 0.30 mg/kg patient body weight in 50 cc of 0.9% normal saline hung as an IV piggyback (IVPB) to the main line and infused over twenty (20) minutes every six (6) hours until twenty-four (24) hours after the patient could tolerate solid foods, until discharged from the hospital, or for a maximum of seven (7) days. These time points for study drug discontinuation were selected in order to analyze the secondary efficacy endpoints of IV MNTX as well as the primary endpoints.
Day of Surgery. Within twenty-four (24) hours of surgery, patients were randomly assigned to either the MNTX 0.30 mg/kg or placebo (saline) dose group.
Prior to the first study drug administration the patient's vital signs were monitored. Patients were asked to assess their level of nausea, abdominal cramping, pain, and itching based on a verbal numerical scale. Within 90 minutes from the end of the surgical procedure, defined as the surgical end time recorded on the operating room (OR) sheet (regardless of whether a patient was in the PACU or not) the first dose of study drug was administered intravenously through an already existing IV line, hung as an IV piggyback (IVPB) to the main line, over 20 minutes. If the IV line was being used for other medications, i.e. antibiotics, electrolyte supplements, etc., the line was flushed with 20 cc of the main IV fluid prior to the hanging of study product. The patient's vital signs were monitored at the end of the study medication infusion, 20 min, 60 min, 120 min and 180 minutes after this first IV study drug administration. Patients were asked to assess their level of nausea, abdominal cramping, pain, and itching based on a verbal numerical scale and whether or not they had vomited 60 minutes after the end of the first study drug administration.
Inability to tolerate clear liquids was defined as nausea and/or vomiting within the first 60 minutes of the challenge.
The patient's diet was advanced to full liquids (≧500 cc of liquid) at the meal following the patient's tolerance of their first 30 cc of water by mouth. The patient's diet was then advanced to solid foods at the meal following their tolerance of full liquids. Tolerance of full liquids was defined as no clinically significant nausea and no vomiting within the first hour of the conclusion of the full liquids. […]

For series [5], the system named is rat. To be noted: cited from earlier work.
The mark [6] stands for this setting: segmental colectomy patients, MNTX 0.30 mg/kg IV every 6 hours, on average.
Setting [7] is: segmental colectomy patients, on average.
[8] abbreviates: sigmoidectomy patients, MNTX IV after surgery, on average.

“Also recorded” adds a separate entry of the source. Read-outs that look alike come from different tables or passages of the source.

Sequence of mu opioid receptor (P35372 whole entry, species assumed): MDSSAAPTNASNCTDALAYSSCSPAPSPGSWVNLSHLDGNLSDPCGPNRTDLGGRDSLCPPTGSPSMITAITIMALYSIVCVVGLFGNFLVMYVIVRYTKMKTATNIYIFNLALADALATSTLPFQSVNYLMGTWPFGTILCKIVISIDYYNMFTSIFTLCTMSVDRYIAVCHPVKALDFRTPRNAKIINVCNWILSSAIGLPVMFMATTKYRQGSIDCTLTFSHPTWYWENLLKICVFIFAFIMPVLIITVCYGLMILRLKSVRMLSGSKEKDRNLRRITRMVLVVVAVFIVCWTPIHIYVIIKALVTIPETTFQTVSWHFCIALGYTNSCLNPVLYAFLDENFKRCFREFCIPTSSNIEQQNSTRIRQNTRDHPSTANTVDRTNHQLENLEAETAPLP

With `C[C@H]1CN(C[C@H](Cc2ccccc2)C(=O)NCC(=O)O)CC[C@@]1(C)c1cccc(O)c1` [Alvimopan], the “Outcome of phase III human studies on post-operative gastrointestinal dysfunction end-points” value in series [1] is “inconsistent results that lacked statistical significance for many of the end-points; also recorded: inconsistent and lack statistical significance with respect to many of the end-points”. For the same molecule, the “Affinity for mu opioid receptor, relative” value in series [2] was “greater affinity and selectivity than methylnaltrexone”.

As for `C[N+]1(CC2CC2)CC[C@]23c4c5ccc(O)c4O[C@H]2C(=O)CC[C@@]3(O)[C@H]1C5` (stereo partly drawn) [MNTX, N-cyclopropylmethylnoroxy-morphine-methobromide], the Solubility in water result in series [3] is given as “freely soluble in water”. Moreover, the “Time to first bowel movement” value in series [4] (segmental colectomy patients, MNTX 0.30 mg/kg IV every 6 hours started after surgery, on average) is given as “about 97 hours”. In series [4] (setting [6]), the “Time to actual discharge” value is on record as “about 140 hours”, the “Time to discharge eligibility” value is listed as “about 119 hours”, the “Time to first flatus” value is listed as “about 88 hours” and the “Time to first full liquid diet” value was “about 70 hours”. Further, in series [4] (setting [6]), the “Time to first solid meal” value was “about 100 hours”; the “Time to first solid meal and bowel movement (solids in-solids out)” value is recorded as “about 124 hours”; the “Time to first use of an anti-emetic” value was “about 26 hours”. In series [4] (setting [7]), the “Time to first anti-emetic use, delayed relative to absence of drug” value was “about 10 hours” and the “Time to first flatus, accelerated relative to absence of drug” value was “about 8 hours”. In addition, in series [4] (sigmoidectomy patients, MNTX IV after surgery), the “Time to first solid meal” value is “about 93 hours”. In addition, in series [4] (setting [8]), the “Time to actual discharge” value was ≤ 125 h, the “Time to discharge eligibility” value is given as “about 105 hours”, the “Time to first bowel movement” value was “about 94 hours” and the “Time to first flatus” value is recorded as “about 85 hours”. For the same molecule, the “Recovery of gastrointestinal transit” value in series [5] (MNTX intravenously 90 minutes before surgery) was “signs of partial recovery of gastrointestinal transit”. Also, the “Recovery of gastrointestinal transit” value in series [5] (MNTX intravenously closer to surgery (60 minutes or 45 minutes before surgery)) is “not”. Moreover, the “Affinity for mu opioid receptor, relative” value in series [2] is listed as “lower mu opioid receptor affinity than Alvimopan”.

The values above are taken from US20060205753A1, “Use of methylnaltrexone and related compounds to treat post-operative gastrointestinal dysfunction” (priority 2005, published 2006).
